Assay results: US20240299542A1, “NATURAL KILLER CELLS ENGINEERED TO REDUCE OR ELIMINATE CBL-B AND USES THEREOF” (City of Hope, priority 2021, published 2024)

Legend:
IFN-γ = assay: Intracellular IFN-γ flow cytometry of siRNA-transduced NK cells; type: cell-based, human
Method: FIGS. 4A-4D depict the results of a study showing that downregulation of Cbl-b increases IFN-γ secretion in IL-15-activated primary human NK cells. (FIG. 4A) RNAseq was conducted using primary human NK cells transduced with either Cbl-b siRNA or Scr siRNA without or with incubation in IL-15 (10 ng/ml) for 16 h (4 donors for each group). […] (FIG. 4B) qRT-PCR was performed to quantify the mRNA levels of IFN-γ (n=6 donors) after IL-15 (10 ng/ml) 6 h stimulation. (FIG. 4C) The percentage of intracellular IFN-γ+ cells in un-transduced NK cells or those transduced with Cbl-b siRNA or Scr siRNA, each activated with IL-15 (10 ng/ml) for 24 h (11.5% vs 4.338%; P=0.0008; n=5 donors). (FIG. 4D) Supernatants were collected after IL-15 (10 ng/ml) for 24 h and IFN-γ concentrations measured by ELISA (18115 pg/ml vs 882.5 pg/ml; P=0.0099; n=7 donors). Scr-scrambled; *P<0.05, **P<0.01, ***P<0.001 by Student's two-tailed paired t-test or One-way ANOVA; ns, not significant. Data presented as mean±SEM.
FIGS. 9B-9D show intracellular flow cytometric analysis of CD56+ primary human NK cells transduced with Scr siRNA or transduced with Cbl-b siRNA, incubated with IL-18 (10 ng/ml), IL-12 (10 ng/ml) or IL-18 (10 ng/ml) plus IL-12 (10 ng/ml) for 24 h. Scr, scrambled; *P<0.05, ns, not significant. Data are presented as mean±SEM.
Flow cytometry. To determine protein cell surface expression via flow cytometry, cells were stained with monoclonal antibodies at room temperature for 20 minutes and washed with FACS buffer prior to analysis using a Fortessa X-20 flow cytometer (BD Biosciences). For IFN-γ intracellular flow cytometric analysis, […] GolgiPlug (BD Biosciences) was added for 4 h before cell harvest; cells were then permeabilized and fixed using a Cytofix/Cytoperm Fixation/Permeabilization Solution Kit (BD Biosciences), followed by analysis with a Fortessa X-20 flow cytometer. Intracellular flow cytometric analysis of Mertk was performed similarly except that GolgiPlug was not added. Data was analyzed by using Flowjo V10 software (Tree Star, Ashland, OR, USA).
To further explore how Cbl-b regulates the functions of primary human NK cells, we performed RNA-seq analyses using enriched primary NK cells from healthy donors transduced with Cbl-b siRNA or Scr siRNA without or with IL-15 treatment for 16 h (n=4 in each group). […] The intracellular results were supported by assessment IFN-γ secretion into the supernatant, in that IL-15-activated primary human NK cells transduced with Cbl-b siRNA expressed 10-fold higher levels of IFN-γ compared to NK cells transduced with Scr siRNA (FIG. 4D).

Mertk = Mertk phosphorylation by immunoblot in siRNA-transduced NK cells; type: cell-based, human; conditions: vs Scr siRNA
Method: FIGS. 5A-5D depict the results of a study showing that Cbl-b interacts with and regulates phosphorylation of Mertk in primary human NK cells. (FIG. 5A) Representative intracellular flow cytometric analysis of the TAM family receptors expression in primary human NK cells. Summarized data are shown from 6 donors. IgG1 is the isotype for Tyro3 and Axl, while IgG2 for Mertk. (FIG. 5B) The level of Mertk phosphorylation and Cbl-b in Cbl-b siRNA- or Scr siRNA-transduced primary human NK was measured by immunoblot analysis. Data presented are representative of five independent experiments. […] Data presented are representative of 4 donors performed in a similar fashion and are summarized in the panel below the representative flow dot plots. […]
FIGS. 10A-10B depict immunoblotting analysis of the phosphorylation level of Mertk (p-Mertk). (FIG. 10A) The level of Mertk phosphorylation and Cbl-b in Cbl-b siRNA- or Scr siRNA-transduced primary human NK cells was measured by immunoblot analysis. […] (FIG. 10B) The level of total Mertk expression in Cbl-b siRNA- or Scr siRNA-transduced primary human NK was measured by immunoblot analysis.
Immunoblotting. […] Densitometric analysis was performed to quantify intensity of gel bands with Image J (National Institutes of Health). […]

Cbl-b siRNA: Cbl-b-specific Accell siRNA (Dharmacon), SEQ ID NO:1, CCUUCAUGUUCAGAUGGUU (Accell modified siRNA, pattern not given here)
percentage of IFN-γ+ fraction relative to Scr siRNA (IFN-γ; IL-12 (10 ng/ml) or IL-12 plus IL-18 (10 ng/ml each) 24 h): no significant difference
percentage of intracellular IFN-γ+ cells (IFN-γ; IL-15 (10 ng/ml) 24 h, n=5 donors): 11.5%
intracellular IFN-γ level relative to Scr siRNA (IFN-γ; IL-15-activated): 2.5 fold
percentage of IFN-γ+ fraction relative to Scr siRNA (IFN-γ; IL-18 (10 ng/ml) 24 h): 2.5 fold
phosphorylation level of Mertk (p-Mertk) (Mertk): significantly increased
